Data: publication PMC5442318, “Hundreds of dual-stage antimalarial molecules discovered by a functional gametocyte screen” (Nature Communications, 2017)

What was measured:
[1] = In vivo pharmacokinetic study, single oral dose; parameters: species or system CD-1 mice
Procedure: Female CD-1 mice (Harlan Interfauna Iberica) at 8 weeks of age were used for single oral dose pharmacokinetic studies (n=2). Dosing solutions were prepared in 20% (v:v) Captisol in water, at a target dose of 50 mg kg^−1 (dose volume of 20 ml kg^−1). After oral dosing, blood samples (25 μl) were collected at 30 min, 1 h, 6 h and 8 h post dose for TCMDC-123767. All the blood samples were diluted with 25 μl of an aqueous solution of saponine 1% (w:v), and stored at −80 °C until analysis. Mice blood samples were analysed for each compound using a method upon protein precipitation followed by LC-MS/MS analysis (Applied Biosystems). Data analysis of the concentration time profiles was performed by noncompartmental methods by using WinNonLin Phoenix Version 6.3.

[2] = Intrinsic clearance assay; format: in vitro ADME; details: mouse liver microsomes, 0.5 μM
Procedure: Intrinsic clearance (CLi) values were determined in mouse liver microsomes (M1000, XenoTech). Test compounds (final concentration 0.5 μM) were incubated at 37 °C for 45 min in 50 mM potassium phosphate buffer (pH 7.4) containing 0.5 mg microsomal protein per ml. The reaction was started by addition of cofactor NADPH ([…], Sigma) at 1 mM final concentration. The final concentration of organic solvent (DMSO) was limited to 0.25% of the final volume. At 0, 5, 15, 30, and 45 min, an aliquot (100 μl) was taken, quenched with acetonitrile containing an appropriate internal standard, and analysed by HPLC-MS/MS (Applied Biosystems). CLi was determined from the first-order elimination constant by nonlinear regression, corrected for the volume of the incubation and assuming […] mouse protein per g liver. Values for CLi were expressed as ml min^-1 per g liver.

FC(F)(F)c1cnc(Sc2nnc(-c3ccncc3)o2)c(Cl)c1 [TCMDC-123767]
elimination in vivo ([1]; oral 50 mg kg^−1, mouse): rapidly eliminated
exposure levels in blood ([1]; oral 50 mg kg^−1, mouse): very low
last detected in blood above the lower limit of quantification (time post-administration) ([1]; oral 50 mg kg^−1, mouse blood, LLOQ 2.5 ng ml^−1): 1 h
in vitro microsome clearance [2]: 7.9 ml min^−1 per g liver
